Assay results published in patent publication US20040162263A1, “Pharmaceutical formulations targeting specific regions of the gastrointesinal tract” (priority 2002, published 2004).
Values belong to the compound of their own block, whether it stands above or below them.

Assays:
[1] = Physico-chemical properties of decitabine (solubility, stability); format: physicochemical; conditions: room temp
[2] = Pharmacokinetics of 9-nitro-camptothecin (9NC) in IVAP beagle dog model; format: in vivo, beagle dogs
Experimental: Blood samples were taken systemic and from the portal vein through a sampling/delivery vascular port previously implanted, then plasma was separated by centrifugation and kept frozen at −80° C. until analysis.
The samples were analyzed in a Perkin Elmer liquid chromatography-tandem mass spectrometer system with a PE LC-200 Micro pump, a PE200 Autosampler and a PE Sciex API 365 mass spectrometry unit.
Adult male beagle dogs (between the ages of 1 and 5 years and weighed between 9 and 16 kg) were obtained from Summit Ridge Farms, Susquehanna, Pa. The IVAP dogs were prepared by using a protocol similar to the one used for pentostatin experiments described above.
On the morning of the test, each animal is weighed and placed in the sling. An IV catheter is installed in the brachial vein for systemic blood sampling with a multiuse vacutainer needle adapter. This is flushed with heparinized saline (50 units/ml) to maintain potency between sampling. When necessary, a 20 g or 22 g right-angled Huber infusion set would be placed in the PV port and attached to a three-way stopcock for PV blood sampling.
The preparation of the dose depends on the route of study. In case of IV and PV administration, the drug was dissolved in dimethylacetamide (DMA) at 5 mg/ml and 0.5 ml of the DMA concentrate filtered through a […] filter into 4.5 ml of diluent (51% PEG-400 49% 0.001 M H3PO4) prior to administration to the brachial or portal vein. In the case of all other infusions, as well as oral administration, the drug was dissolved in vegetable oil to a concentration of 1 mg/ml and drawn up into dosing syringes. Animals were dosed IV at 0.1 and 0.2 mg/kg and 0.2 mg/kg for all the other routes of administration tested.
In intravascular studies, the dose is administered via a second catheter and the entire volume is delivered within 45 seconds.
In portal vein studies, the dose is also administered via an additional catheter over a 30 min time period.
In the case of oral dosages, the dose is delivered to the back of the mouth with an appropriate size syringe and is followed with 5 ml of tap water to assist swallowing and clearance of the dose from the mouth. Capsules were administered similarly by placing them at the back of the mouth and giving around 5 ml of water to facilitate swallowing.
For all other tests, the dosage is infused into the appropriate intestinal port and flushed with 2-3 ml of sterile saline. The dead space volume of the ports and tubing vary slightly between individuals, but are generally less than 0.5 ml total. […]
Systemic blood samples allow the calculation of AUC0-inf after oral capsule administration only and portal vein AUC for all the routes of administration.

[3] = 9-NC 0.2 mg/kg COLON port, 0.17 hr
[4] = 9-NC 0.2 mg/kg ileum port, 0.17 hr
[5] = 9-NC 0.2 mg/kg jejunal port, 0.17 hr
[6] = portal vein samples, 9-NC via COLON port
[7] = portal vein samples, 9-NC via ILEUM port
[8] = portal vein samples, 9-NC via JEJUNUM port
[9] = systemic samples, 9-NC via COLON port
[10] = systemic samples, 9-NC via ILEUM port
[11] = systemic samples, 9-NC via JEJUNUM port

stability [1]: stable
SMILES: Nc1ncn([C@H]2C[C@H](O)[C@@H](CO)O2)c(=O)n1 [Decitabine monohydrate]

SMILES: CC[C@@]1(O)C(=O)OCc2c1cc1n(c2=O)Cc2cc3c([N+](=O)[O-])cccc3nc2-1 [9-NC, 9-nitro-20(S)-camptothecin]
Mean plasma concentration, Portal Vein [2, 3]: 0.53 ± 0.05 ng/mL | Mean plasma concentration, Systemic [2, 3]: 0.117 ng/mL | Mean plasma concentration, Portal Vein [2, 4]: 0.44 ± 0.10 ng/mL | Mean plasma concentration, Systemic [2, 4]: 0.11 ± 0.01 ng/mL | Mean plasma concentration, Portal Vein [2, 5]: 0.54 ± 0.22 ng/mL | Mean plasma concentration, Systemic [2, 5]: BQL | Mean plasma concentration, Portal Vein ([2]; COLON port, 0.5 hr): 0.37 ± 0.12 ng/mL | Mean plasma concentration, Systemic ([2]; COLON port, 0.5 hr): 0.1 ng/mL | Mean plasma concentration, Portal Vein ([2]; COLON port, 1 hr): 0.37 ± 0.15 ng/mL | Mean plasma concentration, Systemic ([2]; COLON port, 1 hr): 0.114 ng/mL | Mean plasma concentration, Systemic ([2]; COLON port, 1.5 hr): BQL | Mean plasma concentration, Portal Vein ([2]; COLON port, 2 hr): 0.16 ± 0.05 ng/mL | Mean plasma concentration, Systemic ([2]; COLON port, 2 hr): 0.134 ng/mL | Mean plasma concentration, Systemic ([2]; COLON port, 4 hr): BQL | Mean plasma concentration, Systemic ([2]; COLON port, 6 hr): BQL | Mean plasma concentration, Systemic ([2]; COLON port, 8 hr): BQL | Mean plasma concentration, Systemic ([2]; COLON port, 12 hr): BQL | Mean plasma concentration, Systemic ([2]; COLON port, 24 hr): 0.11 ng/mL | clearance ([2]; IV 0.1 mg/kg): 29.3 ± 3.17 mL/min/kg | half-life ([2]; IV 0.1 mg/kg, systemic): 0.88 ± 0.45 h | clearance ([2]; IV 0.2 mg/kg): 28.8 ± 13 mL/min/kg | Bioavailability (high iv dose) ([2]; Intracolon): 0.1 ± 0.1% | Bioavailability (low iv dose) ([2]; Intracolon): 0.1 ± 0.1% | Bioavailability, Average ([2]; Intracolon): 0.1% | Mean AUC0-inf of 9-NC, Portal Vein AUC ([2]; Intracolon 0.2 mg/kg): 1.48 ± 0.29 ng·h/mL | Mean AUC0-inf of 9-NC, Systemic AUC ([2]; Intracolon 0.2 mg/kg): 0.07 ± 0.06 ng·h/mL | Bioavailability (high iv dose) ([2]; Intraileum): 1.6 ± 1.1% | Bioavailability (low iv dose) ([2]; Intraileum): 1.6 ± 1.2% | Bioavailability, Average ([2]; Intraileum): 1.6% | Mean AUC0-inf of 9-NC, Portal Vein AUC ([2]; Intraileum 0.2 mg/kg): 1.76 ± 0.95 ng·h/mL | Mean AUC0-inf of 9-NC, Systemic AUC ([2]; Intraileum 0.2 mg/kg): 1.65 ± 1.15 ng·h/mL | Bioavailability (high iv dose) ([2]; Intrajejunal): 3.0 ± 3.2% | Bioavailability (low iv dose) ([2]; Intrajejunal): 3.0 ± 3.2% | Bioavailability, Average ([2]; Intrajejunal): 3.2% | Mean AUC0-inf of 9-NC, Portal Vein AUC ([2]; Intrajejunal 0.2 mg/kg): 4.46 ± 4.00 ng·h/mL | Mean AUC0-inf of 9-NC, Systemic AUC ([2]; Intrajejunal 0.2 mg/kg): 1.03 ± 1.34 ng·h/mL | Mean AUC0-inf of 9-NC, Portal Vein AUC ([2]; Intravenous - High (0.2 mg/kg)): 93.61 ± 17.02 ng·h/mL | Mean AUC0-inf of 9-NC, Systemic AUC ([2]; Intravenous - High (0.2 mg/kg)): 118.33 ± 21.82 ng·h/mL | Mean AUC0-inf of 9-NC, Portal Vein AUC ([2]; Intravenous - Low (0.1 mg/kg)): 45.05 ± 4.08 ng·h/mL | Mean AUC0-inf of 9-NC, Systemic AUC ([2]; Intravenous - Low (0.1 mg/kg)): 57.25 ± 5.84 ng·h/mL | Bioavailability (high iv dose) ([2]; Oral - capsule): 4.1 ± 3.8% | Bioavailability (low iv dose) ([2]; Oral - capsule): 4.2 ± 4.0% | Bioavailability, Average ([2]; Oral - capsule): 4.1% | Mean AUC0-inf of 9-NC, Portal Vein AUC ([2]; Oral - capsule 0.2 mg/kg): 11.48 ± 1.50 ng·h/mL | Mean AUC0-inf of 9-NC, Systemic AUC ([2]; Oral - capsule 0.2 mg/kg): 4.75 ± 4.61 ng·h/mL | Bioavailability (high iv dose) ([2]; Oral - suspension): 0.4 ± 0.6% | Bioavailability (low iv dose) ([2]; Oral - suspension): 0.4 ± 0.6% | Bioavailability, Average ([2]; Oral - suspension): 0.4% | Mean AUC0-inf of 9-NC, Portal Vein AUC ([2]; Oral - suspension 0.2 mg/kg): 11.97 ± 9.88 ng·h/mL | Mean AUC0-inf of 9-NC, Systemic AUC ([2]; Oral - suspension 0.2 mg/kg): 0.48 ± 0.53 ng·h/mL | Bioavailability (high iv dose) ([2]; Portal vein): 5.2 ± 0.8% | Bioavailability (low iv dose) ([2]; Portal vein): 5.4 ± 1.4% | Mean AUC0-inf of 9-NC, Systemic AUC ([2]; Portal vein infusion 0.2 mg/kg): 6.24 ± 2.11 ng·h/mL | Mean plasma concentration, Portal Vein ([2]; ileum port, 0.5 hr): 0.56 ± 0.32 ng/mL | Mean plasma concentration, Systemic ([2]; ileum port, 0.5 hr): 0.12 ng/mL | Mean plasma concentration, Portal Vein ([2]; ileum port, 1 hr): 0.22 ± 0.03 ng/mL | Mean plasma concentration, Systemic ([2]; ileum port, 1 hr): BQL | Mean plasma concentration, Portal Vein ([2]; ileum port, 1.5 hr): 0.34 ± 0.29 ng/mL | Mean plasma concentration, Systemic ([2]; ileum port, 1.5 hr): 0.13 ± 0.04 ng/mL | Mean plasma concentration, Portal Vein ([2]; ileum port, 2 hr): 0.13 ± 0.02 ng/mL | Mean plasma concentration, Systemic ([2]; ileum port, 2 hr): 0.10 ± 0.00 ng/mL | Mean plasma concentration, Portal Vein ([2]; ileum port, 3 hr): 0.12 ± 0.00 ng/mL | Mean plasma concentration, Systemic ([2]; ileum port, 3 hr): 0.17 ng/mL | Mean plasma concentration, Portal Vein ([2]; ileum port, 4 hr): BQL | Mean plasma concentration, Systemic ([2]; ileum port, 4 hr): 0.13 ng/mL | Mean plasma concentration, Portal Vein ([2]; ileum port, 6 hr): 0.10 ng/mL | Mean plasma concentration, Systemic ([2]; ileum port, 6 hr): BQL | Mean plasma concentration, Systemic ([2]; ileum port, 8 hr): 0.14 ng/mL | Mean plasma concentration, Systemic ([2]; ileum port, 12 hr): 0.14 ± 0.02 ng/mL | Mean plasma concentration, Systemic ([2]; ileum port, 24 hr): 0.13 ng/mL | Mean plasma concentration, Portal Vein ([2]; jejunal port, 0.5 hr): 0.41 ± 0.00 ng/mL | Mean plasma concentration, Systemic ([2]; jejunal port, 0.5 hr): 0.14 ng/mL | Mean plasma concentration, Portal Vein ([2]; jejunal port, 1 hr): 0.56 ± 0.47 ng/mL | Mean plasma concentration, Systemic ([2]; jejunal port, 1 hr): 0.15 ng/mL | Mean plasma concentration, Portal Vein ([2]; jejunal port, 2 hr): 0.37 ± 0.10 ng/mL | Mean plasma concentration, Systemic ([2]; jejunal port, 2 hr): 0.14 ng/mL | Mean plasma concentration, Portal Vein ([2]; jejunal port, 3 hr): 0.41 ng/mL | Mean plasma concentration, Systemic ([2]; jejunal port, 3 hr): 0.15 ng/mL | Mean plasma concentration, Portal Vein ([2]; jejunal port, 4 hr): BLOQ | Mean plasma concentration, Systemic ([2]; jejunal port, 4 hr): BQL | Mean plasma concentration, Portal Vein ([2]; jejunal port, 6 hr): BLOQ | Mean plasma concentration, Systemic ([2]; jejunal port, 6 hr): BQL | Mean plasma concentration, Portal Vein ([2]; jejunal port, 8 hr): BLOQ | Mean plasma concentration, Systemic ([2]; jejunal port, 8 hr): 1.36 ± 1.73 ng/mL | Mean plasma concentration, Systemic ([2]; jejunal port, 10 hr): BQL | Mean plasma concentration, Portal Vein ([2]; jejunal port, 12 hr): 0.15 ng/mL | Mean plasma concentration, Systemic ([2]; jejunal port, 12 hr): BQL | Mean plasma concentration, Portal Vein ([2]; jejunal port, 24 hr): BLOQ | Mean plasma concentration, Systemic ([2]; jejunal port, 24 hr): BQL | AUC0-INF ([2]; portal vein samples, 0.2 mg/kg 9-NC via COLON port): 1.48 ± 0.29 ng·h/mL | AUC0-INF ([2]; portal vein samples, 0.2 mg/kg 9-NC via ILEUM port): 1.76 ± 0.95 ng·h/mL | AUC0-INF ([2]; portal vein samples, 0.2 mg/kg 9-NC via JEJUNUM port): 4.46 ± 4.00 ng·h/mL | AUCLast [2, 6]: 0.73 ± 0.63 ng·h/mL | CMAX [2, 6]: 0.79 ± 0.61 ng/mL | MRT [2, 6]: 2.21 ± 1.46 h | TMAX [2, 6]: 1.67 ± 0.29 h | AUCLast [2, 7]: 0.87 ± 0.11 ng·h/mL | CMAX [2, 7]: 0.65 ± 0.20 ng/mL | MRT [2, 7]: 8.65 ± 1.62 h | T1/2 [2, 7]: 6.10 ± 7.50 h | TMAX [2, 7]: 0.34 ± 0.23 h | AUCLast [2, 8]: 0.85 ± 0.55 ng·h/mL | CMAX [2, 8]: 0.66 ± 0.24 ng/mL | MRT [2, 8]: 15.12 ± 1.62 h | T1/2 [2, 8]: 7.59 ± 3.14 h | TMAX [2, 8]: 0.56 ± 0.42 h | AUC0-INF ([2]; systemic samples, 0.2 mg/kg 9-NC via JEJUNUM port): 6.66 ng·h/mL | AUCLast [2, 9]: 0.07 ± 0.06 ng·h/mL | CMAX [2, 9]: 0.08 ± 0.07 ng/mL | F [2, 9]: 0.1 ± 0.1% | TMAX [2, 9]: 0.72 ± 1.11 h | AUCLast [2, 10]: 1.65 ± 1.15 ng·h/mL | CMAX [2, 10]: 0.17 ± 0.01 ng/mL | Cl/F [2, 10]: 85.5 mL/min/kg | F [2, 10]: 1.6 ± 1.2% | TMAX [2, 10]: 2.25 ± 1.06 h | Vz [2, 10]: 1441 L/kg | AUCLast [2, 11]: 1.03 ± 1.34 ng·h/mL | CMAX [2, 11]: 0.96 ± 1.40 ng/mL | Cl/F [2, 11]: 500 mL/min/kg | F [2, 11]: 3.0 ± 3.2% | MRT [2, 11]: 54.11 h | TMAX [2, 11]: 4.00 ± 3.61 h | Vz [2, 11]: 1469 L/kg
